Assay results published in PubChem BioAssay (NCI).
Where “and” joins values, the source holds several entries; their conditions need not be identical. Equal entries are not always repeated.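 Interpolation was linear, between the two tested concentrations surrounding the appropriate level; five concentrations were tested over 48 hours in 96-well plates. GI50 marks 50% less growth. TGI denotes the concentration required for complete inhibition of growth.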

Tests used:
Assay in all cases: inhibition of tumour cell growth, NCI panel, 48 h
[1] = system: SF-268 CNS
[2] = system: UACC-62 melanoma
[3] = system: SN12C renal
[4] = system: COLO 205 colon
[5] = system: SK-MEL-2 melanoma
[6] = system: UO-31 renal
[7] = system: NCI-H460 lung
[8] = system: HT29 colon
[9] = system: CAKI-1 renal
[10] = system: MDA-MB-231 breast

CCOC(=O)CC[C@H](NC(=O)c1nc[nH]c1[N+](=O)[O-])C(=O)OCC
TGI [1]: > 100 µM
TGI [2]: > 100 µM
TGI [3]: > 100 µM
TGI [4]: > 100 µM
TGI [5]: > 100 µM
TGI [6]: > 100 µM
TGI [7]: > 100 µM

O=C1CCCCC1S(=O)(=O)c1ccccc1 (centres undefined)
TGI [1]: > 100 µM
TGI [8]: > 100 µM
TGI [2]: > 100 µM
TGI [9]: > 100 µM
TGI [3]: > 100 µM
TGI [4]: > 100 µM
TGI [5]: > 100 µM
TGI [6]: > 100 µM
TGI [7]: > 100 µM

COc1cc2ccnc3c2c(c1OC)-c1coc(SC)c1-3
TGI [1]: > 100 µM
TGI [8]: > 100 µM
TGI [2]: > 100 µM
TGI [9]: > 100 µM
TGI [3]: > 100 µM
TGI [4]: > 100 µM
TGI [5]: > 100 µM
TGI [6]: > 100 µM
TGI [7]: > 100 µM

NC(=O)CN(CC(N)=O)C(N)=O
TGI [1]: > 100 µM
TGI [8]: > 100 µM
TGI [2]: > 100 µM
TGI [9]: > 100 µM
TGI [4]: > 100 µM
TGI [5]: > 100 µM
TGI [6]: > 100 µM
TGI [7]: > 100 µM

N/N=C(/C(=O)Nc1cccc(Cl)c1)C(C(=O)c1ccc(O)cc1O)C1OC(=O)c2ccccc21 (centres undefined)
TGI [1]: > 100 µM
TGI [8]: > 100 µM
TGI [2]: > 100 µM
TGI [3]: > 100 µM
TGI [4]: > 100 µM
TGI [5]: > 100 µM
TGI [6]: > 100 µM
TGI [7]: > 100 µM

CCOC(=O)/C(C1=NCCN1)=C(\O)c1ccccc1
TGI [1]: > 100 µM
TGI [8]: > 100 µM
TGI [2]: > 100 µM
TGI [9]: > 100 µM
TGI [3]: > 100 µM
TGI [4]: > 100 µM
TGI [5]: > 100 µM
TGI [6]: > 100 µM
TGI [7]: > 100 µM

COc1ccc(/C=C/c2cc(OC)c(OC)c(OC)c2)cc1
TGI [1]: > 85.3 µM
TGI [8]: > 38 µM
TGI [2]: > 100 µM
TGI [9]: 98.4 µM
TGI [3]: > 100 µM
TGI [4]: 11 µM
TGI [5]: 52.8 µM
TGI [6]: > 100 µM
TGI [7]: > 80.6 µM

CSc1nnc(CCC(=O)Nc2c(C)cccc2C)o1
TGI [1]: > 100 µM
TGI [8]: > 100 µM
TGI [2]: > 100 µM
TGI [9]: > 100 µM
TGI [3]: > 100 µM
TGI [4]: > 100 µM
TGI [5]: > 100 µM
TGI [6]: > 100 µM
TGI [7]: > 100 µM

CC(CN(C)C)/C(=N\Nc1ccccc1)c1ccccc1 (centres undefined)
TGI [1]: 16.6 µM
TGI [8]: 17.9 µM
TGI [2]: 12.3 µM
TGI [3]: > 100 µM
TGI [4]: 2.55 µM
TGI [6]: 3.28 µM
TGI [7]: 15.5 µM

O=C(O)CC[C@H](NC(=O)c1ccc(-n2nc3ccc(O)cc3nc2=O)cc1)C(=O)O
TGI [1]: > 100 µM
TGI [8]: > 100 µM
TGI [2]: > 100 µM
TGI [3]: > 100 µM
TGI [4]: > 100 µM
TGI [5]: > 100 µM
TGI [6]: > 100 µM
TGI [7]: > 100 µM

CC(=O)Nc1ccc(S(=O)(=O)N/N=C/CN2C(=O)c3ccccc3C2=O)cc1
TGI [1]: > 100 µM
TGI [8]: > 100 µM
TGI [2]: > 100 µM
TGI [9]: > 100 µM
TGI [3]: > 100 µM
TGI [4]: > 100 µM
TGI [5]: > 100 µM
TGI [6]: > 100 µM
TGI [7]: > 100 µM

COc1ccc2c(CN3CCCC[C@H]3C(=O)O)cc3cc4c(cc3c2c1)OCO4
GI50 [1]: 0.175 µM
TGI [1]: 1.39 µM
GI50 [8]: 0.374 µM
TGI [8]: 1.85 µM
GI50 [2]: 1.02 µM
TGI [2]: 2.34 µM
GI50 [9]: 0.747 µM
TGI [9]: 3.37 µM
GI50 [10]: 0.799 µM
TGI [10]: 3.59 µM
GI50 [3]: 1 µM
TGI [3]: 4.31 µM
GI50 [4]: 0.494 µM
TGI [4]: 2.88 µM
GI50 [7]: 0.359 µM
TGI [7]: 2.23 µM

C=C/C=C/NC(=O)OCc1ccccc1
TGI [1]: > 100 µM
TGI [8]: > 100 µM
TGI [2]: > 100 µM
TGI [9]: > 100 µM
TGI [3]: > 100 µM
TGI [4]: > 100 µM
TGI [5]: > 100 µM
TGI [6]: > 100 µM
TGI [7]: > 100 µM

COc1cc2c[n+](C)c3c4cc(OC)c(OC(C)C)cc4ccc3c2cc1OC
TGI [1]: > 100 µM
TGI [8]: > 100 µM
TGI [2]: > 100 µM
TGI [9]: > 100 µM
TGI [3]: > 100 µM
TGI [4]: 31.2 µM
TGI [5]: 40 µM
TGI [6]: > 100 µM
TGI [7]: > 100 µM

C=CCN=C(N/N=C/c1ccc([N+](=O)[O-])o1)NS(=O)(=O)c1cc(C(=O)Nc2ccc(Cl)cc2)c(Cl)cc1SC
GI50 [1]: 2.85 µM
TGI [1]: > 100 µM
GI50 [8]: 5.81 µM
TGI [8]: > 100 µM
GI50 [2]: 2.81 µM
TGI [2]: > 27.7 µM
GI50 [9]: 8.55 µM
TGI [9]: > 100 µM
GI50 [3]: 2.63 µM
TGI [3]: > 100 µM
TGI [4]: > 100 µM
TGI [5]: > 24.4 µM
GI50 [6]: > 49.9 µM
TGI [6]: > 100 µM
GI50 [7]: 2.22 µM
TGI [7]: > 35.2 µM

COc1ccc2c(c1)C(=O)c1ccc(OC)cc1C2=S
TGI [1]: > 100 µM
TGI [8]: > 100 µM
TGI [2]: > 100 µM
TGI [3]: > 100 µM
TGI [4]: > 100 µM
TGI [5]: > 100 µM
TGI [6]: > 100 µM

CC1=NN(C(=O)c2ccccc2O)C(=O)/C1=C/c1ccc(O)cc1
TGI [1]: > 100 µM
TGI [8]: > 100 µM
TGI [2]: 5.06 µM
TGI [9]: > 100 µM
TGI [10]: > 100 µM
TGI [3]: > 78.7 µM
TGI [4]: > 94.6 µM
TGI [7]: > 100 µM

CC[C@@]1(O)C(=O)OCc2c1cc1n(c2=O)Cc2cc3cc4c(cc3nc2-1)OCO4
TGI [2]: 0.00717 µM
TGI [10]: > 100 µM
TGI [3]: < 0.0125 µM
GI50 [4]: < 0.0341 µM
TGI [4]: 0.71 µM
GI50 [5]: 0.204 µM
TGI [5]: 0.173 µM and 0.997 µM
TGI [6]: 0.0251 µM and < 0.015 µM
TGI [7]: 0.0876 µM and 0.0232 µM

Cc1nc(Nc2ccccc2)sc1C(=O)CC(=O)C(=O)Nc1c(C(C)C)cccc1C(C)C
TGI [1]: > 100 µM
TGI [8]: > 100 µM
TGI [2]: > 100 µM
TGI [9]: > 100 µM
TGI [3]: > 100 µM
TGI [4]: > 100 µM
TGI [5]: > 100 µM
TGI [6]: > 100 µM
TGI [7]: > 100 µM

O=[N+]([O-])c1ccc(-n2nnc(C3=NCCN3)c2-c2ccccc2)cc1
TGI [1]: > 100 µM
TGI [8]: > 100 µM
TGI [2]: > 100 µM
TGI [9]: > 100 µM
TGI [3]: > 100 µM
TGI [4]: > 100 µM
TGI [5]: > 100 µM
TGI [6]: > 100 µM
TGI [7]: > 100 µM

C=Cc1cncc(C#N)c1CCc1c(C#N)cncc1C=C
TGI [1]: > 10 µM
GI50 [8]: > 100 µM
TGI [8]: > 100 µM
GI50 [2]: > 100 µM
TGI [2]: > 100 µM
GI50 [9]: > 10 µM
TGI [9]: > 100 µM
GI50 [3]: > 100 µM
TGI [3]: > 100 µM
TGI [4]: > 10 µM
GI50 [5]: > 100 µM
TGI [5]: > 100 µM
GI50 [6]: > 100 µM
TGI [6]: > 100 µM
GI50 [7]: > 100 µM
TGI [7]: > 100 µM

O=C1C=CC(=O)C2=C1[C@@H](O)C1CC=CC3C(=O)O[C@@H]2C31 (some centres undefined)
TGI [1]: > 70.6 µM
TGI [8]: > 65.4 µM
TGI [2]: 35.8 µM
TGI [9]: 35.2 µM
TGI [3]: 37.2 µM
TGI [4]: 37 µM
TGI [5]: 35.6 µM
TGI [6]: > 71.5 µM
TGI [7]: > 100 µM
